pKi: −log10 of the molar value.
Biological target: T1, Aurora-2 (Homo sapiens, UniProt O14965)
T1 sequence (O14965 1-403): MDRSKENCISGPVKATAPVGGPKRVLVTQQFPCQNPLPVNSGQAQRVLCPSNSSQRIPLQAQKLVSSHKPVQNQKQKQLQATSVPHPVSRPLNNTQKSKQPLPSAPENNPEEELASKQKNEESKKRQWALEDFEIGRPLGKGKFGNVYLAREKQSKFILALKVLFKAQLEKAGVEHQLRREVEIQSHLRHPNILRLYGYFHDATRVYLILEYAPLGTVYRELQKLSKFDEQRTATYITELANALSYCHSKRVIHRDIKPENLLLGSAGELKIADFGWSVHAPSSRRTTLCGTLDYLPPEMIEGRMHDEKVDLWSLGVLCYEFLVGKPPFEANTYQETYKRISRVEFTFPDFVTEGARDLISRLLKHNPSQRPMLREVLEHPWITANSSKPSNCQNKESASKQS
Assay: Ki determination for the inhibition of Aurora-2 (coupled enzyme assay)
Format: biochemical
Conditions: 70 nM Aurora-2, 30° C.
Description: To an assay stock buffer solution containing 0.1 M HEPES 7.5, 10 mM MgCl2, 1 mM DTT, 25 mM NaCl, 2.5 mM phosphoenolpyruvate, […], 30 mg/ml pyruvate kinase, 10 mg/ml lactate dehydrogenase, 40 mM ATP, and 800 μM peptide (LRRASLG, American Peptide, Sunnyvale, Calif.) was added a DMSO solution of a compound of the present invention to a final concentration of 30 μM. The resulting mixture was incubated at 30° C. for 10 min. The reaction was initiated by the addition of 10 μL of Aurora-2 stock solution to give a final concentration of 70 nM in the assay. […] The Ki values were determined from the rate data as a function of inhibitor concentration.

- pKi: 6.00 to 7.00
SMILES: Cc1cc(Nc2cc(C)[nH]n2)nc(C(C)(C)c2ccccc2)n1 [IIId-20]

— patent publication US6989385B2, “Pyrazole compounds useful as protein kinase inhibitors” (Vertex Pharmaceuticals Incorporated, priority 2000, dated 2006)
